Data as given in ChEMBL document CHEMBL5131385, “Novel piperazine based benzamide derivatives as potential anti-glioblastoma agents inhibiting cell proliferation and cell cycle progression” (Eur J Med Chem, 2022).
The source made the active and inactive calls. No cut-off for these calls is given here.

Tests used:
U-251 [1] = test: Induction of apoptosis in human U-251 cells assessed as enlargement of intracellular space at 0.375 to 6 uM measured after 72 hrs by Giemsa staining based microscopic analysis; assay type: functional, cell-based; details: dose 0.375-6 µM
U-251 [2] = test: Antiproliferative activity against human U-251 cells assessed as inhibition of cell proliferation measured after 72 hrs by CCK8 assay; assay type: functional, cell-based; details: U-251, 72 h
[3] = Induction of apoptosis in human U-87 MG cells assessed as early apoptotic cells at 1.20 uM incubated for 72 hrs by Annexin V-FITC/PI staining based flow cytometry method (reference value: 2.53 %); assay type: functional, U-87MG ATCC; details: dose 1.2 µM
[4] = Induction of apoptosis in human U-87 MG cells assessed as viable cells at 0.075 uM incubated for 72 hrs by Annexin V-FITC/PI staining based flow cytometry method (reference value: 96.84 %); assay type: functional, U-87MG ATCC; details: read-out: Activity
U-251 [5] = test: Induction of cell cycle arrest in human U-251 cells assessed as accumulation at G0/G1 phase at 0.75 to 3 uM and measured after 72 hrs by flow cytometry; assay type: functional, cell-based; details: dose 0.75-3 µM, DDE = dose-dependent effect
[6] = Induction of apoptosis in human U-87 MG cells assessed as late apoptotic cells at 0.075 uM incubated for 72 hrs by Annexin V-FITC/PI staining based flow cytometry method (reference value: 0.42 %); assay type: functional, U-87MG ATCC
U-251 [7] = test: Induction of apoptosis in human U-251 cells assessed as early apoptotic cells at 6 uM incubated for 72 hrs by Annexin V-FITC/PI staining based flow cytometry method (Rvb =1.96 %); assay type: functional
U-251 [8] = test: Induction of apoptosis in human U-251 cells assessed as late apoptotic cells at 1.50 uM incubated for 72 hrs by Annexin V-FITC/PI staining based flow cytometry method (Rvb =1.31 %); assay type: functional; details: dose 1.5 µM
U-87MG ATCC [9] = test: Induction of cell cycle arrest in human U-87 MG cells assessed as accumulation at G0/G1 phase at 0.075 to 1.2 uM and measured after 72 hrs by flow cytometry; assay type: functional, cell-based; details: dose 0.075-1.2 µM, DDE = dose-dependent effect
U-251 [10] = test: Induction of cell cycle arrest in human U-251 cells assessed as decrease in accumulation at G2/M phase at 0.75 to 3 uM measured after 72 hrs by flow cytometry; assay type: functional, cell-based; details: dose 0.75-3 µM, DDE = dose-dependent effect
U-251 [11] = test: Antiinvasive activity against human U-251 cells assessed as inhibition of cell invasion at 0.25 to 1.0 uM measured after 24 hrs by transwell invasion assay; assay type: functional, cell-based; details: dose 0.25-1 µM, DDE = dose-dependent effect
U-87MG ATCC [12] = test: Antiinvasive activity against human U-87 MG cells assessed as inhibition of cell invasion at 0.125 to 0.50 uM and measured after 24 hrs by transwell invasion assay; assay type: functional, cell-based; details: dose 0.125-0.5 µM, DDE = dose-dependent effect
[13] = Tmax in Sprague-Dawley rat plasma at 100 mg/kg, ip and measured upto 240 mins by LC-MS analysis; assay type: ADME, organism-based
[14] = Tmax in Sprague-Dawley rat brain at 100 mg/kg, ip and measured upto 240 mins by LC-MS analysis; assay type: ADME, organism-based
[15] = Cmax in Sprague-Dawley rat plasma at 100 mg/kg, ip and measured upto 240 mins by LC-MS analysis; assay type: ADME, organism-based; set-up: dose 100 mg/kg, time < 240 min, route ip
[16] = AUC (0 to t) in Sprague-Dawley rat plasma at 100 mg/kg, ip and measured upto 240 mins by LC-MS analysis; assay type: ADME, organism-based; set-up: dose 100 mg/kg, time < 240 min, route ip
[17] = Ratio of drug level in Sprague-Dawley rat brain to plasma at 100 mg/kg, ip measured after 240 mins by LC-MS analysis; assay type: ADME, organism-based; details: read-out: logBB (converted)
[18] = Acute toxicity in Kunming mouse assessed as pathological changes in lung at 600 mg/kg, ip measured after 24 hrs by H and E staining analysis; assay type: organism-based; details: in vivo
U-251 [19] = test: Downregulation of pRb gene expression in human U-251 cells at 0.075 to 1.2 uM measured after 72 hrs by western blot analysis; assay type: functional, cell-based; details: dose 0.075-1.2 µM
U-87MG ATCC [20] = test: Downregulation of CDK6 gene expression in human U-87 MG cells at 0.075 to 1.2 uM measured after 72 hrs by western blot analysis; assay type: functional, cell-based; details: dose 0.075-1.2 µM
U-87MG ATCC [21] = test: Upregulation of p16 INK4a gene expression in human U-87 MG cells at 0.075 to 1.2 uM measured after 72 hrs by western blot analysis; assay type: functional, cell-based; details: dose 0.075-1.2 µM

## COCCN1CCN(c2ccc(F)cc2C(=O)Nc2ccc(CNC(=O)OCc3cccnc3)cc2)CC1
U-251 [1]
  Activity: Active
U-251 [2]
  IC50: 1280 nM
[3]
  Activity: 17.92%
[4]
  viability at 0.075 µM: 96.5%
U-251 [5]
  Activity: Dde
[6]
  Activity: 0.41%
U-251 [7]
  Activity: 4.81%
U-251 [8]
  Activity: 2.47%
U-87MG ATCC [9]
  Activity: Dde
U-251 [10]
  Activity: Dde
U-251 [11]
  Activity: Dde
U-87MG ATCC [12]
  Activity: Dde
[13]
  Tmax: 30 min
[14]
  Tmax: 30 min
[15]
  Cmax: 71.7 µg/mL
[16]
  AUC(0-t) at 4 h: 90400 ng·h/mL
[17]
  Kp at 4 h: 1.07
[18]
  Activity: Non-Toxic
U-251 [19]
  Activity: Active
U-87MG ATCC [20]
  Activity: Active
U-87MG ATCC [21]
  Activity: Active
